Results: PubChem BioAssay (NCI)
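Cultured in 96-well plates, cells were exposed to test compound for 48 hours across five concentrations. GI50 is the concentration that inhibits growth by half. Definition used: TGI = concentration required for complete inhibition of growth.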

Key:
Experiment in all cases: DTP human tumour cell line panel, 48 h
IGROV1 ovarian = tested on: IGROV1 ovarian
K-562 leukemia = tested on: K-562 leukemia
MOLT-4 leukemia = tested on: MOLT-4 leukemia
NCI-H23 lung = tested on: NCI-H23 lung
OVCAR-5 ovarian = tested on: OVCAR-5 ovarian
SK-OV-3 ovarian = tested on: SK-OV-3 ovarian
SN12C renal = tested on: SN12C renal
SR leukemia = tested on: SR leukemia
PC-3 prostate = tested on: PC-3 prostate

Row | SMILES | TGI (IGROV1 ovarian) | TGI (K-562 leukemia) | TGI (MOLT-4 leukemia) | TGI (NCI-H23 lung) | TGI (OVCAR-5 ovarian) | TGI (SK-OV-3 ovarian) | TGI (SN12C renal) | TGI (SR leukemia) | TGI (PC-3 prostate) | GI50 (IGROV1 ovarian) | GI50 (K-562 leukemia) | GI50 (MOLT-4 leukemia) | GI50 (NCI-H23 lung) | GI50 (OVCAR-5 ovarian) | GI50 (PC-3 prostate) | GI50 (SN12C renal) | GI50 (SR leukemia)
1 | O=C(c1ccccc1)N1CCN(C(=S)NC2CCCCC2)C1=S | 60.8 µM | 96.8 µM | 56 µM | 36.1 µM | 52.5 µM | 65.6 µM | 40 µM | 88.7 µM | – | – | – | – | – | – | – | – | –
2 | COC1=C[C@]2(CCC(=O)O2)[C@@H]2Cc3ccccc3[C@H](O)[C@@H]2C1=O | > 100 µM | > 100 µM | 38.9 µM | > 100 µM | > 100 µM | > 100 µM | > 100 µM | 41.4 µM | > 100 µM | – | – | – | – | – | – | – | –
3 | COC(=O)CNC(=O)C(Cc1ccccc1)NC(=O)c1ccc(-c2ccc(Cl)cc2Cl)o1 (configuration not stated) | > 100 µM | > 100 µM | 49.2 µM | > 100 µM | > 100 µM | 84.2 µM | > 100 µM | 36 µM | > 100 µM | – | – | – | – | – | – | – | –
4 | CC(=O)OCC1OC(N2C(=O)NC(=O)C3C=C4CCCCC4=CC32)CC1OC(C)=O (configuration not stated) | > 100 µM | > 100 µM | > 100 µM | – | > 100 µM | > 100 µM | > 100 µM | > 100 µM | > 100 µM | – | – | – | – | – | – | – | –
5 | COC(=O)c1c(O)ccc2c1c1cc3ccccc3cc1n2Cc1cc(OC)cc(OC)c1 | 1.69 µM | > 100 µM | > 100 µM | > 100 µM | > 100 µM | – | > 100 µM | > 100 µM | > 32.6 µM | – | – | – | – | – | – | – | –
6 | Cc1c(C(=O)O)n2c(=S)[nH]nc2c2ccccc12 | > 100 µM | > 100 µM | > 100 µM | > 100 µM | > 100 µM | > 100 µM | > 100 µM | > 100 µM | > 100 µM | – | – | – | – | – | – | – | –
7 | CSc1cc(Cl)c(C)cc1S(=O)(=O)NC(=O)NNc1ccc(F)cc1 | > 100 µM | > 100 µM | > 100 µM | – | > 100 µM | > 100 µM | > 100 µM | > 100 µM | > 100 µM | – | – | – | – | – | – | – | –
8 | O=C1c2ccccc2C(=O)N1n1c(Cc2ccc(Cl)cc2)n[nH]c1=O | > 100 µM | > 100 µM | > 100 µM | > 100 µM | > 100 µM | – | > 100 µM | > 100 µM | > 100 µM | – | – | – | – | – | – | – | –
9 | N[C@H]1c2c(Br)sc(Br)c2C(=O)[C@H]1O | 32.8 µM | 15.2 µM | > 22 µM | 17.5 µM | 60.7 µM | 38.3 µM | 3.63 µM | 5.79 µM | > 75.1 µM | – | – | – | – | – | – | – | –
10 | COc1ccc2c(c1)N(Cc1ccc(Cl)cc1)CCC2N1CCCC1=O (configuration not stated) | > 100 µM | > 100 µM | 24.6 µM | 57.2 µM | > 100 µM | – | 89.1 µM | > 100 µM | 38.7 µM | 3.51 µM | 4.6 µM | 4.9 µM | 4.37 µM | 6.6 µM | 3000 nM | 4.68 µM | 6.37 µM
11 | CN(c1ccccc1)S(=O)(=O)c1ccc([N+](=O)[O-])cc1 | – | – | – | > 100 µM | > 100 µM | – | > 100 µM | > 100 µM | > 100 µM | – | – | – | – | – | – | – | –
12 | COc1cc(C2c3cc4c(cc3OC(NNc3ccccc3)C2C)OCO4)cc(OC)c1OC (configuration not stated) | > 100 µM | > 32.1 µM | > 47.3 µM | > 100 µM | > 81 µM | > 100 µM | > 62 µM | – | > 56.3 µM | – | – | – | – | – | – | – | –
13 | CCOC(=O)c1[nH]cc(C)c1-c1cccn1-c1ccc(Cl)cc1[N+](=O)[O-] | 49.9 µM | 53.3 µM | 46.4 µM | > 100 µM | > 100 µM | – | 64.7 µM | – | 64.9 µM | – | – | – | – | – | – | – | –
14 | N#Cc1c(N)oc(-c2ccc([N+](=O)[O-])cc2)c1C#N | 42.4 µM | – | – | 57.2 µM | > 100 µM | > 100 µM | 52.1 µM | > 100 µM | 56.9 µM | – | – | – | – | – | – | – | –
15 | Fc1ccc(-c2sc(-c3ccsc3)cc2Cc2ccsc2)cc1 | > 10 µM | > 10 µM | > 10 µM | > 10 µM | – | > 10 µM | > 10 µM | > 10 µM | > 10 µM | – | – | – | – | – | – | – | –
16 | Cc1cc2cc3cc(C)c(N)cc3nc2cc1N | 1.7 µM | 3.28 µM | 0.894 µM | 2.24 µM | 2.65 µM | – | 1.63 µM | 1.44 µM | 6.84 µM | – | – | – | – | – | – | – | –
17 | Cn1c(-c2ccc(-c3cc(-c4cccs4)c(-c4cccs4)n3C)cc2)cc(-c2cccs2)c1-c1cccs1 | > 100 µM | > 100 µM | > 100 µM | – | – | > 100 µM | > 100 µM | > 100 µM | > 100 µM | – | – | – | – | – | – | – | –
18 | CCn1c2nc(=O)n(CCCCCCCCSC(c3ccccc3)(c3ccccc3)c3ccccc3)c(=O)c-2nc2ccccc21 | > 100 µM | > 100 µM | 24.6 µM | > 100 µM | > 100 µM | > 100 µM | – | > 100 µM | > 100 µM | – | – | – | – | – | – | – | –
19 | CC(C)=CC1C(C(=O)Oc2ccccc2C(C)C)C1(C)C (configuration not stated) | > 100 µM | 83.8 µM | – | 65.4 µM | 48.8 µM | > 100 µM | 40.1 µM | 61.7 µM | – | – | – | – | – | – | – | – | –
20 | CCOC(=O)/C=C/C(=O)O/C=C/[N+](=O)[O-] | > 100 µM | – | > 100 µM | > 100 µM | > 100 µM | > 100 µM | > 100 µM | > 100 µM | – | – | – | – | – | – | – | – | –
21 | CC(C)C(Nc1ncnc2nc[nH]c12)C(=O)O (configuration not stated) | > 100 µM | > 100 µM | – | > 100 µM | > 100 µM | > 100 µM | > 100 µM | > 100 µM | > 100 µM | – | – | – | – | – | – | – | –
22 | O=c1ccc2ccc(CBr)cc2o1 | 13.1 µM | 5.2 µM | 5.98 µM | 8.91 µM | 3.29 µM | – | 7.22 µM | 5.05 µM | > 100 µM | – | – | – | – | – | – | – | –
23 | CC#C[C@]1(O)CCC2[C@@H]3CCC4=CC(=O)CCC4=C3[C@@H](c3ccc(N(C)C)cc3)C[C@@]21C (some centres not stated) | – | 58.8 µM | – | 62.1 µM | 79.1 µM | 72.4 µM | 52 µM | 37.1 µM | 88.7 µM | – | – | – | – | – | – | – | –
24 | O=c1[nH]c2ccccc2c(O)c1Cc1ccccc1 | > 100 µM | > 100 µM | > 100 µM | > 100 µM | > 100 µM | – | > 100 µM | > 100 µM | > 100 µM | – | – | – | – | – | – | – | –
25 | CCOC(=O)c1c(NS(=O)(=O)c2ccc(C)cc2)sc2c1CCCC2 | > 100 µM | > 100 µM | > 100 µM | 54 µM | > 100 µM | – | > 100 µM | – | > 100 µM | – | – | – | – | – | – | – | –
